Earlier results in PubChem BioAssay AID1259409 (Chemical Carcinogenesis Research Information System (CCRIS), 2018).

Test system: rodent chemically induced tumor inhibition, incidence and multiplicity
Experiment: CCRIS tumor inhibitor studies
Conditions: for tumour outcome (control, treated, inhibition, significance): Route [Inhibitor]: ORAL; for outcome: Carcinogen: N,N-Diethylnitrosamine, Route [Inhibitor]: Intravenous, Species: Rat, Strain/Sex: Swiss-Albino/Male, Target Tissue: Type of Lesion: Liver: preneoplastic lesions, Promoter: None

## O=c1c(O)c(-c2ccc(O)c(O)c2)oc2cc(O)cc(O)c12
Carcinogen: DIETHYLNITROSAMINE, 55-18-5, N-METHYLNITROSOUREA, 684-93-5, 1,2-DIMETHYLHYDRAZINE, 540-73-8, N-BUTYL-N-(4-HYDROXYB, Carcinogen: DIETHYLNITROSAMINE, 55-18-5, N-METHYLNITROSOUREA, 684-93-5, 1,2-DIMETHYLHYDRAZINE, 540-73-8, N-BUTYL-N-(4-HYDROXYB, Dose [Inhibitor]: 0, 1% IN DIET FOR 32 WK BEGINNING POST CARCINOGEN TREATMENT (STUDY DURATION: 36 WK), Species: RAT, Strain/Sex: F344/MALE, Target Tissue: Type of Lesion: SMALL INTESTINE: ADENOMA, Dose [Carcinogen]: 100 MG/KG DEN ONCE, 20 MG/KG MNU 4 TIMES, 40 MG/KG DMH 4 TIMES, 0.05% BBN IN DRINKING WATER FOR 2 WK, 0.1% DHPN IN D, Dose [Carcinogen]: 100 MG/KG DEN ONCE, 20 MG/KG MNU 4 TIMES, 40 MG/KG DMH 4 TIMES, 0.05% BBN IN DRINKING WATER FOR 2 WK, 0.1% DHPN IN D, Promoter: NONE USED
  tumour outcome (control, treated, inhibition, significance): 6/14 (43%), 0/12 (0%), 100%, p<0.05
Carcinogen: DIETHYLNITROSAMINE, 55-18-5, N-METHYLNITROSOUREA, 684-93-5, 1,2-DIMETHYLHYDRAZINE, 540-73-8, N-BUTYL-N-(4-HYDROXYB, Carcinogen: DIETHYLNITROSAMINE, 55-18-5, N-METHYLNITROSOUREA, 684-93-5, 1,2-DIMETHYLHYDRAZINE, 540-73-8, N-BUTYL-N-(4-HYDROXYB, Dose [Inhibitor]: 0, 1% IN DIET FOR 32 WK BEGINNING POST CARCINOGEN TREATMENT (STUDY DURATION: 36 WK), Species: RAT, Strain/Sex: F344/MALE, Target Tissue: Type of Lesion: SMALL INTESTINE: CARCINOMA, Dose [Carcinogen]: 100 MG/KG DEN ONCE, 20 MG/KG MNU 4 TIMES, 40 MG/KG DMH 4 TIMES, 0.05% BBN IN DRINKING WATER FOR 2 WK, 0.1% DHPN IN D, Dose [Carcinogen]: 100 MG/KG DEN ONCE, 20 MG/KG MNU 4 TIMES, 40 MG/KG DMH 4 TIMES, 0.05% BBN IN DRINKING WATER FOR 2 WK, 0.1% DHPN IN D, Promoter: NONE USED
  tumour outcome (control, treated, inhibition, significance): 5/14 (36%), 0/12 (0%), 100%, p<0.05
Carcinogen: DIETHYLNITROSAMINE, 55-18-5, N-METHYLNITROSOUREA, 684-93-5, 1,2-DIMETHYLHYDRAZINE, 540-73-8, N-BUTYL-N-(4-HYDROXYBU, Carcinogen: DIETHYLNITROSAMINE, 55-18-5, N-METHYLNITROSOUREA, 684-93-5, 1,2-DIMETHYLHYDRAZINE, 540-73-8, N-BUTYL-N-(4-HYDROXYBU, Dose [Inhibitor]: 0, 1% IN DIET FOR 32 WK BEGINNING POST CARCINOGEN TREATMENT (STUDY DURATION: 36 WK), Species: RAT, Strain/Sex: F344/MALE, Target Tissue: Type of Lesion: LARGE INTESTINE: ADENOMA, Dose [Carcinogen]: 100 MG/KG DEN ONCE, 20 MG/KG MNU 4 TIMES, 40 MG/KG DMH 4 TIMES, 0.05% BBN IN DRINKING WATER FOR 2 WK, 0.1% DHPN IN D, Dose [Carcinogen]: 100 MG/KG DEN ONCE, 20 MG/KG MNU 4 TIMES, 40 MG/KG DMH 4 TIMES, 0.05% BBN IN DRINKING WATER FOR 2 WK, 0.1% DHPN IN D, Promoter: NONE USED
  tumour outcome (control, treated, inhibition, significance): 7/14 (50%), 3/12 (25%), 50%, not significant
Carcinogen: DIETHYLNITROSAMINE, 55-18-5, N-METHYLNITROSOUREA, 684-93-5, 1,2-DIMETHYLHYDRAZINE, 540-73-8, N-BUTYL-N-(4-HYDROXYBU, Carcinogen: DIETHYLNITROSAMINE, 55-18-5, N-METHYLNITROSOUREA, 684-93-5, 1,2-DIMETHYLHYDRAZINE, 540-73-8, N-BUTYL-N-(4-HYDROXYBU, Dose [Inhibitor]: 0, 1% IN DIET FOR 32 WK BEGINNING POST CARCINOGEN TREATMENT (STUDY DURATION: 36 WK), Species: RAT, Strain/Sex: F344/MALE, Target Tissue: Type of Lesion: LUNG: ADENOMA, Dose [Carcinogen]: 100 MG/KG DEN ONCE, 20 MG/KG MNU 4 TIMES, 40 MG/KG DMH 4 TIMES, 0.05% BBN IN DRINKING WATER FOR 2 WK, 0.1% DHPN IN D, Dose [Carcinogen]: 100 MG/KG DEN ONCE, 20 MG/KG MNU 4 TIMES, 40 MG/KG DMH 4 TIMES, 0.05% BBN IN DRINKING WATER FOR 2 WK, 0.1% DHPN IN D, Promoter: NONE USED
  tumour outcome (control, treated, inhibition, significance): 6/14 (43%), 3/12 (25%), 42%, not significant
55-18-5, Dose [Inhibitor]: 0.5 ml suspension of 0.2% tween 80 aqueous soln with 0.898 mM quercetin once a wk for 16 wk, Dose [Carcinogen]: 200 mg/kg bw in 0.5 ml olive oil three times at 15 day intervals beginning on wk 1
  outcome: 1205+/-102, 1111+/-56, not significant
55-18-5, Dose [Inhibitor]: 0.5 ml suspension of galactosylated liposomal quercitin, 0.898 mM, once a wk for 16 wk, study duration 18 wk, Dose [Carcinogen]: 200 mg/kg bw in 0.5 ml olive oil three times at end of 1st, 3rd and 5th wk, study duration 18 wk
  outcome: 1205+/-102, 361+/-22, significant
55-18-5, Dose [Inhibitor]: 0.5 ml suspension of liposomal quercitin, 0.898 mM, once a wk for 16 wk, study duration 18 wk, Dose [Carcinogen]: 200 mg/kg bw in 0.5 ml olive oil three times at end of 1st, 3rd and 5th wk, study duration 18 wk
  outcome: 1205+/-102, 861+/-81, significant
Carcinogen: N-BUTYL-N-(4-HYDROXYBUTYL)NITROSAMINE, 3817-11-6, Dose [Inhibitor]: 5% DIET DAILY FOR 34 WK STARTING AT COMPLETION OF CARCINOGEN TREATMENT (STUDY DURATION: 38 WK), Species: RAT, Strain/Sex: F344/MALE, Target Tissue: Type of Lesion: URINARY BLADDER: PAPILLOMA, Dose [Carcinogen]: 0.01% IN DRINKING WATER FOR 4 WK, Promoter: NONE USED
  tumour outcome (control, treated, inhibition, significance): 33%, 17%, 48%, not significant
Carcinogen: N-NITROSODIETHYLAMINE, 55-18-5, 2-ACETYLAMINOFLUORENE, 53-93-6, CARBON TETRACHLORIDE, 56-23-5, Carcinogen: N-NITROSODIETHYLAMINE, 55-18-5, 2-ACETYLAMINOFLUORENE, 53-93-6, CARBON TETRACHLORIDE, 56-23-5, Dose [Inhibitor]: 0, 1.5% IN DIET FOR 29 WK ADMINISTERED TO RATS BEARING PERSISTENT NODULES FOLLOWING CARCINOGEN TREATMENT (STUDY DURATION, Species: RAT, Strain/Sex: F344/MALE, Target Tissue: Type of Lesion: LIVER: HEPATOCELLULAR CARCINOMA, Dose [Carcinogen]: 200 MG/KG BW DEN ONCE, 0.002% 2-AAF IN DIET FOR 2 WK, 1 MG/KG BW CCL4 MIDWAY IN 2-AAF TREATMENT, Dose [Carcinogen]: 200 MG/KG BW DEN ONCE, 0.002% 2-AAF IN DIET FOR 2 WK, 1 MG/KG BW CCL4 MIDWAY IN 2-AAF TREATMENT, Promoter: NONE USED
  tumour outcome (control, treated, inhibition, significance): 7/8 (88%), 7/11 (64%), 27%, not significant
Carcinogen: N-NITROSODIETHYLAMINE, 55-18-5, 2-ACETYLAMINOFLUORENE, 53-93-6, CARBON TETRACHLORIDE, 56-23-5, Carcinogen: N-NITROSODIETHYLAMINE, 55-18-5, 2-ACETYLAMINOFLUORENE, 53-93-6, CARBON TETRACHLORIDE, 56-23-5, Dose [Inhibitor]: 0, 1.5% IN DIET FOR 29 WK ADMINISTERED TO RATS BEARING PERSISTENT NODULES FOLLOWING CARCINOGEN TREATMENT (STUDY DURATION, Species: RAT, Strain/Sex: F344/MALE, Target Tissue: Type of Lesion: LIVER: HEPATOCELLULAR CARCINOMA, Dose [Carcinogen]: 200 MG/KG BW DEN ONCE, 0.002% 2-AAF IN DIET FOR 2 WK, 1 ML/KG BW CCL4 MIDWAY IN 2-AAF TREATMENT, Dose [Carcinogen]: 200 MG/KG BW DEN ONCE, 0.002% 2-AAF IN DIET FOR 2 WK, 1 ML/KG BW CCL4 MIDWAY IN 2-AAF TREATMENT, Promoter: PHENOBARBITAL, 50-06-6
  tumour outcome (control, treated, inhibition, significance): 12/12 (100%), 13/14 (93%), 7%, not significant
Carcinogen: N-NITROSOMETHYLUREA, 684-93-5, Dose [Inhibitor]: 5.0% IN DIET BEGINNING 1 WK PRIOR TO CARCINOGEN DOSE AND CONTINUING FOR DURATION OF STUDY (STUDY DURATION: 21 WK), Species: RAT, Strain/Sex: SPRAGUE-DAWLEY/FEMALE, Target Tissue: Type of Lesion: MAMMARY GLAND: TUMOR, Dose [Carcinogen]: 50 MG/KG BW IN 0.9% SALINE AND 5% ACETIC ACID STABILIZER ONCE, Promoter: NONE USED
  tumour outcome (control, treated, inhibition, significance): 78%, 70%, 10%, not calculated
Dose [Inhibitor]: 0, 2000 PPM IN DIET BEGINNING 8 WK PRIOR TO CARCINOGEN AND CONTINUING FOR 6 WK POST CARCINOGEN (STUDY DURATION: 68 WK), Species: FISH, Strain/Sex: RAINBOW TROUT, Target Tissue: Type of Lesion: LIVER: HEPATOCELLULAR CARCINOMA, Dose [Carcinogen]: 20 PPB IN DIET FOR 2 WK, Promoter: NONE USED
  tumour outcome (control, treated, inhibition, significance): 43/118 (36%), 30/115 (26%), 27%, not significant
